Test results reported in patent publication US9695152B2, “3,4-dihydro-2H-isoquinoline-1-one and 2,3-dihydro-isoindol-1-one compounds” (Hoffmann-La Roche Inc., priority 2013, dated 2017).

Legend:
CYP11B2 = CYP11B2 (Homo sapiens (Human), UniProt P19099); test: G-402 cellular enzyme assay, human CYP11B2 (aldosterone release, HTRF); format: cell-based; details: G-402 cells expressing human CYP11B2, 1 μM Deoxycorticosterone
Description: (§1) Herein we identified the use of the G-402 cell line as a host cell to ectopically express (transiently or stably) enzymes of the CYP11 family. Specifically we developed stable G-402 cells expressing ectopically human CYP11B1, human CYP11B2, human CYP11A1, cynmolgus CYP11B1 or cynomolgus CYP11B2 enzyme activity. Importantly the identified cell line G-402 expresses co-factors (adrenodoxin and adrenodoxin reductase) important for the activity of the CYP11 family and no relevant enzyme activity of the CYP11 family (in comparison to H295R cells) was detected in these cells. Therefore the G-402 cell line is uniquely suited as a host cell for the ectopic expression of enzymes from the CYP11 family.
(§2) G-402 cells can be obtained from ATCC (CRL-1440) and were originally derived from a renal leiomyoblastoma.
(§3) The expression plasmids contains the ORF for either human/cyno CYP11B1 or CYP11B2 under the control of a suitable promoter (CMV-promoter) and a suitable resistance marker (neomycin). Using standard techniques the expression plasmid is transfected into G-402 cells and these cells are then selected for expressing the given resistance markers. Individual cell-clones are then selected and assessed for displaying the desired enzymatic activity using 11-Deoxycorticosterone (Cyp11B2) or 11-Deoxycortisol (Cyp11B1) as a substrate.
(§4) G-402 cells expressing CYP11 constructs were established as described above and maintained in McCoy's 5a Medium Modified, ATCC Catalog No. 30-2007 containing 10% FCS and 400 μg/ml G418 (Geneticin) at 37° C. under an atmosphere of 5% CO2/95% air. Cellular enzyme assays were performed in DMEM/F12 medium containing 2.5% charcoal treated FCS and appropriate concentration of substrate (0.3-10 uM 11-Deoxycorticosterone, 11-Deoxycortisol or Corticosterone). For assaying enzymatic activity, cells were plated onto 96 well plates and incubated for 16 h. An aliquot of the supernatant is then transferred and analyzed for the concentration of the expected product (Aldosterone for CYP11B2; Cortisol for CYP11B1). The concentrations of these steroids can be determined using HTRF assays from CisBio analyzing either Aldosterone or Cortisol.
(§5) Inhibition of the release of produced steroids can be used as a measure of the respective enzyme inhibition by test compounds added during the cellular enzyme assay. The dose dependent inhibition of enzymatic activity by a compound is calculated by means of plotting added inhibitor concentrations (x-axes) vs. measured steroid/product level (y-axes). The inhibition is then calculated by fitting the following 4-parameter sigmoidal function (Morgan-Mercer-Flodin (MMF) model) to the raw data points using the least squares method:
(§6) [formula] wherein, A is the maximum y value, B is the EC50 factor determined using XLFit, C is the minimum y value and D is the slope value.
(§7) EC50 values for compounds claimed herein were tested with the G402-based assay system described. Cyp11B2 enzyme activity was tested in presence of 1 μM Deoxycorticosterone and variable amounts of inhibitors; Cyp11B1 enzyme activity was tested in presence of 1 μM Deoxycortisol and variable amounts of inhibitors.

human CYP11B1 = human CYP11B1 (Homo sapiens (Human), UniProt P15538); test: G-402 cellular enzyme assay, human CYP11B1 (cortisol release, HTRF); format: cell-based; details: G-402 cells expressing human CYP11B1, 1 μM Deoxycortisol
Sequence of human CYP11B1 (P15538 25-503): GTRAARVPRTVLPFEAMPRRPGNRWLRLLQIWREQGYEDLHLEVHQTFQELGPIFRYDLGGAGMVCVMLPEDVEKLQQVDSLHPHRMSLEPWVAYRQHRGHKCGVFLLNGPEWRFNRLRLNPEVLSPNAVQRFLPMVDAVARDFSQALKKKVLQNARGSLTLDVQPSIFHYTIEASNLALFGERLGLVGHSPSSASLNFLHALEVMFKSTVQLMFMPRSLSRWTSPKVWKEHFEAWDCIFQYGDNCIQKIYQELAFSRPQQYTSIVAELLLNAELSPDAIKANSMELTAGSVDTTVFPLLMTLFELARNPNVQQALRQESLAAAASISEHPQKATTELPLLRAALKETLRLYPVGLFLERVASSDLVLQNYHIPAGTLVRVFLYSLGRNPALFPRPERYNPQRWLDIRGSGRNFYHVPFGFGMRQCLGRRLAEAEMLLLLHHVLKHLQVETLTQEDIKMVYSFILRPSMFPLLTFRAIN
Description: as §1, §2, §3, §4, §5, §6, §7

Sequence of CYP11B2 (P19099 25-503): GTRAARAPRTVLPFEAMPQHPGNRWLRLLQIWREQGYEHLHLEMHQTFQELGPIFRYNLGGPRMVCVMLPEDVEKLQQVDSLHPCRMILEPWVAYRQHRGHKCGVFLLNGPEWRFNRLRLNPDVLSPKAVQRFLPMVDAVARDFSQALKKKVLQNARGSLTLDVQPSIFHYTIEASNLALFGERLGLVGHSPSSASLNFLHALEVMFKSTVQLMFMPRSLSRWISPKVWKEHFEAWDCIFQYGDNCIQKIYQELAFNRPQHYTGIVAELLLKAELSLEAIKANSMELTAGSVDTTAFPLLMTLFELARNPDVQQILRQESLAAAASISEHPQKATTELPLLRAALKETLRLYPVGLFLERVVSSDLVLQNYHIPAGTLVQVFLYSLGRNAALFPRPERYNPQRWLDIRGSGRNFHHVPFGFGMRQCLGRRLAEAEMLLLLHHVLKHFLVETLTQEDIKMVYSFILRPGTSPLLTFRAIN

`CC1(C)c2cc(Cl)ccc2C(=O)N1c1cncc(NC2CN(C(=O)c3ncccc3Cl)C2)c1` [Example 9, 5-Chloro-2-[5-[[1-(3-chloropyridine-2-carbonyl)azetidin-3-yl]amino]pyridin-3-yl]-3,3-dimethylisoindol-1-one] gave an EC50 (CYP11B2) of 7 nM and an EC50 (human CYP11B1) of 297 nM.

`Cn1cc(C(=O)N2CC(Nc3cncc(N4CCc5cc(Cl)ccc5C4=O)c3)C2)cn1` [Example 21, 6-Chloro-2-[5-[[1-(1-methylpyrazole-4-carbonyl)azetidin-3-yl]amino]-3-pyridyl]-3,4-dihydroisoquinolin-1-one] was tested, and the EC50 (CYP11B2) was 7 nM and the EC50 (human CYP11B1) was 16900 nM.

Molecule `Cn1ccnc1C(=O)N1CC(Nc2cncc(N3C(=O)c4ccc(Cl)cc4C3(C)C)c2)C1` [Example 2, 5-Chloro-3,3-dimethyl-2-[5-[[1-(1-methylimidazole-2-carbonyl)azetidin-3-yl]amino]-3-pyridyl]isoindolin-1-one] has an EC50 (CYP11B2) of 4 nM and an EC50 (human CYP11B1) of 450 nM.

`Cc1ccncc1C(=O)N1CC(Nc2cncc(N3C(=O)c4ccc(Cl)cc4[C@H]3C)c2)C1` (single isomer, unassigned) [Example 26, (3S or 3R)-5-Chloro-3-methyl-2-[5-[[1-(4-methylpyridine-3-carbonyl)azetidin-3-yl]amino]-3-pyridyl]isoindolin-1-one] showed an EC50 (CYP11B2) of 16 nM and an EC50 (human CYP11B1) of 1910 nM.

`Cc1ccncc1C(=O)N1CC(Nc2cncc(N3C(=O)c4ccc(Cl)cc4C3C)c2)C1` (stereo not drawn) [Example 13, 5-Chloro-3-methyl-2-[5-[[1-(4-methylpyridine-3-carbonyl)azetidin-3-yl]amino]pyridin-3-yl]-3H-isoindol-1-one] gave an EC50 (CYP11B2) of 7 nM and an EC50 (human CYP11B1) of 4900 nM.

`CN(c1cncc(N2C(=O)c3ccc(Cl)cc3C2(C)C)c1)C1CCN(S(=O)(=O)C2CC2)C1` (single isomer, unassigned; (+)) [Example 4, (+)-5-Chloro-2-[5-[[(3R or 3S)-1-cyclopropylsulfonylpyrrolidin-3-yl]-methylamino]pyridin-3-yl]-3,3-dimethylisoindol-1-one] showed an EC50 (CYP11B2) of 2 nM and an EC50 (human CYP11B1) of 56 nM.

For `Cc1cncc(C(=O)N2CC(Nc3cncc(N4CCc5cc(Cl)ccc5C4=O)c3)C2)c1` [Example 18, 6-Chloro-2-[5-[[1-(5-methylpyridine-3-carbonyl)azetidin-3-yl]amino]pyridin-3-yl]-3,4-dihydroisoquinolin-1-one], the EC50 (CYP11B2) was 9 nM and the EC50 (human CYP11B1) was 1290 nM.

`Cc1ccncc1C(=O)N1CC(Nc2cncc(N3C(=O)c4ccc(C#N)cc4C3(C)C)c2)C1` [Example 32, 3,3-Dimethyl-2-[5-[[1-(4-methylpyridine-3-carbonyl)azetidin-3-yl]amino]-3-pyridyl]-1-oxo-isoindoline-5-carbonitrile] gave an EC50 (CYP11B2) of 27 nM and an EC50 (human CYP11B1) of 6140 nM.

`Cc1ccncc1C(=O)N1CCC(Nc2cncc(N3C(=O)c4ccc(C#N)cc4C3(C)C)c2)CC1` [Example 37, 3,3-Dimethyl-2[5-[[1-(4-methylpyridine-3-carbonyl)-4-piperidyl]amino]-3-pyridyl]-1-oxo-isoindoline-5-carbonitrile] gave an EC50 (CYP11B2) of 70 nM and an EC50 (human CYP11B1) of 10500 nM.

Work on `CC1(C)c2cc(C#N)ccc2C(=O)N1c1cncc(NC2CCN(C(=O)c3ncccc3Cl)CC2)c1` [Example 36, 2-[5-[[1-(3-Chloropyridine-2-carbonyl)-4-piperidyl]amino]-3-pyridyl]-3,3-dimethyl-1-oxo-isoindoline-5-carbonitrile] yielded an EC50 (CYP11B2) of 22 nM and an EC50 (human CYP11B1) of 1400 nM.

`Cc1cncc(C(=O)N2CC(Nc3cncc(N4C(=O)c5ccc(Cl)cc5C4(C)C)c3)C2)c1` [Example 11, 5-Chloro-3,3-dimethyl-2-[5-[[1-(5-methylpyridine-3-carbonyl)azetidin-3-yl]amino]pyridin-3-yl]isoindol-1-one] gave an EC50 (CYP11B2) of 3 nM and an EC50 (human CYP11B1) of 1950 nM.

Work on `Cc1ccncc1C(=O)N1CC(Nc2cncc(N3CCc4cc(Cl)ccc4C3=O)c2)C1` [Example 16, 6-Chloro-2-[5-[[1-(4-methylpyridine-3-carbonyl)azetidin-3-yl]amino]pyridin-3-yl]-3,4-dihydroisoquinolin-1-one] yielded an EC50 (CYP11B2) of 10 nM and an EC50 (human CYP11B1) of 5340 nM.

`Cc1ccncc1C(=O)N1CC2(CC(Nc3cncc(N4C(=O)c5ccc(Cl)cc5C4(C)C)c3)C2)C1` [Example 19, 5-Chloro-3,3-dimethyl-2-[5-[[2-(4-methylpyridine-3-carbonyl)-2-azaspiro[3.3]heptan-6-yl]amino]pyridin-3-yl]isoindol-1-one] gave an EC50 (CYP11B2) of 86 nM and an EC50 (human CYP11B1) of 10900 nM.

`Cn1cc(C(=O)N2CC(Nc3cncc(N4C(=O)c5ccc(Cl)cc5C4(C)C)c3)C2)cn1` [Example 24, 5-Chloro-3,3-dimethyl-2-[5-[[1-(1-methylpyrazole-4-carbonyl)azetidin-3-yl]amino]-3-pyridyl]isoindolin-1-one] gave an EC50 (CYP11B2) of 1 nM and an EC50 (human CYP11B1) of 6020 nM.

`CN(c1cncc(N2C(=O)c3ccc(Cl)cc3C2(C)C)c1)C1CN(S(=O)(=O)C2CC2)C1` [Example 3, 5-Chloro-2-[5-[(1-cyclopropylsulfonylazetidin-3-yl)-methylamino]pyridin-3-yl]-3,3-dimethylisoindol-1-one] was tested, and the EC50 (CYP11B2) was 0.4 nM and the EC50 (human CYP11B1) was 18 nM.

`CC1c2cc(Cl)ccc2C(=O)N1c1cncc(NC2CN(S(=O)(=O)C3CC3)C2)c1` (stereo not drawn) [Example 14, 5-Chloro-2-[5-[(1-cyclopropylsulfonylazetidin-3-yl)amino]pyridin-3-yl]-3-methyl-3H-isoindol-1-one] gave an EC50 (CYP11B2) of 131 nM and an EC50 (human CYP11B1) of 2890 nM.

`CC1(C)c2cc(C#N)ccc2C(=O)N1c1cncc(NC2CCN(S(=O)(=O)C3CC3)CC2)c1` [Example 35, 2-[5-[(1-Cyclopropylsulfonyl-4-piperidyl)amino]-3-pyridyl]-3,3-dimethyl-1-oxo-isoindoline-5-carbonitrile] showed an EC50 (CYP11B2) of 24 nM and an EC50 (human CYP11B1) of 13300 nM.

Molecule `CN(c1cncc(N2C(=O)c3ccc(Cl)cc3C2(C)C)c1)C1CCN(S(=O)(=O)C2CC2)C1` (single isomer, unassigned; (-)) [Example 5, (−)-5-chloro-2-[5-[[(3S or 3R)-1-cyclopropylsulfonylpyrrolidin-3-yl]-methylamino]pyridin-3-yl]-3,3-dimethylisoindol-1-one] has an EC50 (CYP11B2) of 1 nM and an EC50 (human CYP11B1) of 133 nM.

With `Cn1ccnc1C(=O)N1CC(Nc2cncc(N3C(=O)c4ccc(C#N)cc4C3(C)C)c2)C1` [Example 34, 3,3-Dimethyl-2[5-[[1-(1-methylimidazole-2-carbonyl)azetidin-3-yl]amino]-3-pyridyl]-1-oxo-isoindoline-5-carbonitrile] the EC50 (CYP11B2) was 5 nM and the EC50 (human CYP11B1) was 586 nM.

`O=C1c2ccc(Cl)cc2CCN1c1cncc(NC2CN(S(=O)(=O)C3CC3)C2)c1` [Example 15, 6-Chloro-2-[5-[(1-cyclopropylsulfonylazetidin-3-yl)amino]pyridin-3-yl]-3,4-dihydroisoquinolin-1-one] showed an EC50 (CYP11B2) of 148 nM and an EC50 (human CYP11B1) of 9560 nM.

For `CC1(C)c2cc(Cl)ccc2C(=O)N1c1cncc(NC2CCCN(S(=O)(=O)C3CC3)C2)c1` (single isomer, unassigned; (+)) [Example 7, (+)-5-Chloro-2-[5-[[(3R or 3S)-1-cyclopropylsulfonylpiperidin-3-yl]amino]pyridin-3-yl]-3,3-dimethylisoindol-1-one], the EC50 (CYP11B2) was 230 nM and the EC50 (human CYP11B1) was > 30000 nM.

`Cc1noc(C)c1C(=O)N1CC(Nc2cncc(N3C(=O)c4ccc(Cl)cc4C3(C)C)c2)C1` [Example 23, 5-Chloro-2-[5-[[1-(3,5-dimethylisoxazole-4-carbonyl)azetidin-3-yl]amino]-3-pyridyl]-3,3-dimethyl-isoindolin-1-one] was tested, and the EC50 (CYP11B2) was 30 nM and the EC50 (human CYP11B1) was 5950 nM.

`Cc1ccncc1C(=O)N1CC(Nc2cncc(N3C(=O)c4ccc(Cl)cc4[C@H]3C)c2)C1` (single isomer, unassigned) [Example 25, (3R or 3S)-5-Chloro-3-methyl-2-[5-[[1-(4-methylpyridine-3-carbonyl)azetidin-3-yl]amino]-3-pyridyl]isoindolin-1-one] showed an EC50 (CYP11B2) of 7 nM and an EC50 (human CYP11B1) of 4360 nM.

`CN(c1cncc(N2C(=O)c3ccc(Cl)cc3C2(C)C)c1)C1CCN(S(=O)(=O)C2CC2)CC1` [Example 6] was tested, and the EC50 (CYP11B2) was 1 nM and the EC50 (human CYP11B1) was 4 nM.
